Experimental data taken from US20100136022A1, “METHOD FOR MODULATING THE IMMUNE RESPONSE BY ACTIVATING OR INACTIVATING THE NOTCH AND/OR STAT4 SIGNAL PATH” (DEUTSCHES RHEUMA-FORSCHUNGSZENTRUM BERLIN, priority 2007, published 2010).

Key:
[1] = test system: Notch; assay: IL-10 expression in lymphatic node cells after transfer of OVA-specific Th cells and OVA/CpG immunization (Example 12); type: in vivo; settings: mice received 10 μM/kg; lymphatic node cells after 5 days; FIG. 13
Procedure: 1·10^7 antigen specific (OVA-TZR transgenic) naive Th cells were transferred into recipient mice which were subsequently immunized s.c. with 50 μg of OVA/20 μg of CpG. After 5 days the lymphatic node cells were restimulated with PMA/ionomycin and analyzed using intracellular cytokine staining. IFN-γ/IL-10 double-positive cells were induced under these conditions. The expression of IL-10 was blocked in mice which had received 10 μM/kg of a Notch inhibitor (γ-secretase inhibitor, DBZ, Syncom) (FIG. 13).

[2] = test system: Notch signaling pathway; assay: IL-10 induction in T helper cells cocultured with A20-B cells expressing Notch ligands DII-1 or DII-4 (Example 9); type: cell-based, mouse; settings: 125 nM inhibitor; IL-12 10 ng/ml, OVA peptide, 5 days, intracellular staining; FIG. 10A
Procedure: Antigen-specific (OVA-TZR transgenic) naive CD4+CD25-CD62L+T helper cells were isolated using flow cytometry, cultured with A20-B cells (at a ratio of 2:1) in the presence of IL-12 (10 ng/ml), which cells express the Notch ligands DII-1 or DII-4, and stimulated with OVA peptide (0.2 μg/ml). After 5 days the cells were restimulated with PMA/ionomycin, and their cytokine expression was analyzed using intracellular staining.
This induction can be blocked in a specific manner by an inhibitor of the Notch signaling pathway (γ-secretase inhibitor, 125 nM Insolution γ-secretase inhibitor X, Calbiochem) (FIG. 10A). Further coculturing in the presence of the DII-1 and DII-4 ligands dramatically increases the IL-10 production (FIG. 10B).

[3] = test system: Notch signaling pathway; assay: IL-10 induction in T helper cells cultured with CD11c+ dendritic cells, IL-12 and/or CpG (Example 11); type: cell-based, mouse; settings: 125 nM inhibitor, OVA peptide, 5 days, FIG. 12
Procedure: Antigen-specific (OVA-TZR transgenic) naive CD4+CD25-CD62L+T helper cells were isolated using flow cytometry, cultured with CD11c+ dendritic cells from spleen and lymphatic nodes (at a ratio of 20:1) in the presence of IL-12 (10 ng/ml) and/or 1 μM CpG and stimulated with OVA peptide (0.2 μg/ml). After 5 days the cells were restimulated with PMA/ionomycin, and their cytokine expression was analyzed using intracellular staining.
The expression of IL-10 can be blocked by a specific inhibitor of the Notch signaling pathway (γ-secretase inhibitor, Calbiochem, 125 nM).

[4] = test system: Notch signaling pathway; assay: IL-10 expression of human T cells cocultured with plasmacytoid or myeloid dendritic cells (Example 15); type: cell-based; settings: 85 nM inhibitor, SEB 1 μg/ml, 6 days
[5] = test system: CD11c-positive dendritic cells; assay: Expression of Notch ligands in dendritic cells after TLR stimulation (Example 10); type: cell-based, mice; settings: stimulation for 15 h; 50 μg/ml pIC, 1 μg/ml LPS, 1 μg/ml flagellin or 1 μM CpG; FIG. 11
Procedure: CD11c-positive dendritic cells were isolated from spleen and lymphatic nodes of naive mice using flow cytometry and stimulated with 50 μg/ml pIC (TLR3), 1 μg/ml LPS (TLR4), 1 μg/ml flagellin (TLR5) or 1 μM CpG (TLR9) for 15 h.

[6] = test system: STAT4; assay: IL-10 production (ELISA) of Notch3IC-transduced Th cells cultured with interleukin 27 (Example 5); type: cell-based, mice; settings: 10 ng/ml interleukin 27, wild-type vs STAT4-deficient, FIG. 6
Procedure: Naive CD4+-CD25-CD62L+T helper cells from wild-type (C57BU6) or STAT4-deficient mice were isolated using flow cytometry. The cells were subsequently cultured with irradiated (30 Gy) MHCII+ antigen-presenting cells at a ratio of 1:4 in the presence of interleukin 27 (10 ng/ml). Stimulation was effected polyclonally using 0.5 μg/ml anti-CD3 and 1 μg/ml anti-CD28. After 24 h the cells were retro-virally transduced with active Notch3 (Notch3IC). To this end, the cells were centrifuged with virus supernatant for 75 min at 750×g and 32° C. After 5 days the cells were restimulated with PMA/ionomycin, and their cytokine production was analyzed using ELISA.
No IL-10 production is observed in the event of STAT4-deficient cells.

## C[C@H](NC(=O)Cc1cc(F)cc(F)c1)C(=O)N[C@@H]1C(=O)N(C)c2ccccc2-c2ccccc21 [DBZ]
[1]
  expression of IL-10 (IFN-γ/IL-10 double-positive cells): blocked

## CC(C)C[C@H](NC(=O)[C@H](Cc1ccccc1)C[C@@H](O)[C@H](Cc1ccccc1)NC(=O)OC(C)(C)C)C(=O)N[C@@H](Cc1ccccc1)C(N)=O [Insolution γ-secretase inhibitor X]
[2]
  IL-10 production induced by coculturing with Delta-like ligands: blocked
[3]
  expression of IL-10 in the T cells: blocked
[4]; FIG. 16A
  IL-10 expression, naive T cells cocultured with plasmacytoid dendritic cells: blocked
[4]; FIG. 16B
  IL-10 production, memory T cells cocultured with plasmacytoid or myeloid dendritic cells: blocked in either case

## flagellin
[5]
  Expression of Delta-like 1: largely unchanged
  Expression of Jagged 1: largely unchanged
  expression of the Delta-like 4 Notch ligand: enhanced

B1: IL-27: STAT4-activating cytokine of the IL-12 family (protein, UniProt Q8NEV9 29-243; Q14213 21-229, looked up)
Interleukin-27 subunit alpha: FPRPPGRPQLSLQELRREFTVSLHLARKLLSEVRGQAHRFAESHLPGVNLYLLPLGEQLPDVSLTFQAWRRLSDPERLCFISTTLQPFHALLGGLGTQGRWTNMERMQLWAMRLDLRDLQRHLRFQVLAAGFNLPEEEEEEEEEEEEERKGLLPGALGSALQGPAQVSWPQLLSTYRLLHSLELVLSRAVRELLLLSKAGHSVWPLGFPTLSPQP
Interleukin-27 subunit beta: RKGPPAALTLPRVQCRASRYPIAVDCSWTLPPAPNSTSPVSFIATYRLGMAARGHSWPCLQQTPTSTSCTITDVQLFSMAPYVLNVTAVHPWGSSSSFVPFITEHIIKPDPPEGVRLSPLAERQLQVQWEPPGSWPFPEIFSLKYWIRYKRQGAARFHRVGPIEATSFILRAVRPRARYYVQVAAQDLTDYGELSDWSLPATATMSLGK
[6]
  IL-10 production together with Notch, STAT4-dependent: induction of IL-10
